# According to patent US20260262643A1, “HERBICIDAL BENZOXAZINES” (FMC CORPORATION, priority 2022, published 2026):
# What was measured:
# oat, wild [1] = assay: Test C preemergence; type: in vivo, Avena fatua; conditions: for Plant response rating, Oat, Wild: Preemergence; for Oat, Wild plant response rating: preemergence
# Outline: (§1)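 Visual injury ratings on a 0–100 scale (100 = complete control) were made against untreated controls 10 days after treatment in the greenhouse. Compounds, formulated with surfactant in non-phytotoxic solvent, were sprayed on soil preemergence or onto one- to two-leaf plants 2–10 cm tall postemergence.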
# pigweed, palmer [2] = assay: Test C postemergence; type: in vivo, Amaranthus palmeri; conditions: 10 days
# Outline: as §1
# blackgrass [3] = assay: Test C postemergence; type: in vivo, Alopecurus myosuroides; conditions: 10 days
# Outline: as §1
# green foxtail [4] = assay: Test C preemergence; type: in vivo, Setaria viridis; conditions: for Plant response rating, Foxtail, Green: Preemergence; for Foxtail, Green plant response rating: preemergence
# Outline: as §1
# barnyardgrass [5] = assay: Test C postemergence; type: in vivo, Echinochloa crusgalli; conditions: 10 days
# Outline: as §1
# galium = assay: Test C postemergence; type: in vivo, Galium aparine; conditions: 10 days
# Outline: as §1
# ragweed [6] = assay: Test C postemergence; type: in vivo, Ambrosia artemisiifolia; conditions: 10 days
# Outline: as §1
# soybean [7] = assay: Test C postemergence; type: in vivo, Glycine max; conditions: 10 days
# Outline: as §1
# ryegrass, Italian [8] = assay: Test C postemergence; type: in vivo, Lolium multiflorum; conditions: 10 days
# Outline: as §1
# oat, wild [9] = assay: Test C postemergence; type: in vivo, Avena fatua; conditions: 10 days
# Outline: as §1
# corn [10] = assay: Test C preemergence; type: in vivo, Zea mays; conditions: for Plant response rating, Corn: Preemergence; for Corn plant response rating: preemergence
# Outline: as §1
# ragweed [11] = assay: Test C preemergence; type: in vivo, Ambrosia artemisiifolia; conditions: for Plant response rating, Ragweed: Preemergence; for Ragweed plant response rating: preemergence
# Outline: as §1
# barnyardgrass [12] = assay: Test C preemergence; type: in vivo, Echinochloa crusgalli; conditions: for Plant response rating, Barnyardgrass: Preemergence; for Barnyardgrass plant response rating: preemergence
# Outline: as §1
# corn [13] = assay: Test C postemergence; type: in vivo, Zea mays; conditions: 10 days
# Outline: as §1
# green foxtail [14] = assay: Test C postemergence; type: in vivo, Setaria viridis; conditions: 10 days
# Outline: as §1
# ducksalad = assay: Test D flooded paddy test; type: in vivo, Heteranthera limosa; conditions: 250 g ai/ha, applied to paddy water, visual rating after 13 to 14 days, scale 0 to 100 (0 no effect, 100 complete control)
# Outline: (§2)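 At the 2-leaf stage, floodwater 3 cm deep received the test compound; that depth persisted throughout. Plants scored visually 13 to 14 days on, 0 (no effect) to 100 (complete control), dash indicating no result.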
# rice = assay: Test D flooded paddy test; type: in vivo, Oryza sativa; conditions: 250 g ai/ha, applied to paddy water, visual rating after 13 to 14 days, scale 0 to 100 (0 no effect, 100 complete control)
# Outline: as §2
# wheat [15] = assay: Test C postemergence; type: in vivo, Triticum aestivum; conditions: 10 days
# Outline: as §1
# pigweed, palmer [16] = assay: Test C preemergence; type: in vivo, Amaranthus palmeri; conditions: for Plant response rating, Pigweed, Palmer: Preemergence; for Pigweed, Palmer plant response rating: preemergence
# Outline: as §1
# kochia [17] = assay: Test C postemergence; type: in vivo, Bassia scoparia; conditions: 10 days
# Outline: as §1
# kochia [18] = assay: Test C preemergence; type: in vivo, Bassia scoparia; conditions: for Plant response rating, Kochia: Preemergence; for Kochia plant response rating: preemergence
# Outline: as §1
# barnyardgrass [19] = assay: Test D flooded paddy test; type: in vivo, Echinochloa crus-galli; conditions: 250 g ai/ha, applied to paddy water, visual rating after 13 to 14 days, scale 0 to 100 (0 no effect, 100 complete control)
# Outline: as §2
# sedge, umbrella = assay: Test D flooded paddy test; type: in vivo, Cyperus difformis; conditions: 250 g ai/ha, applied to paddy water, visual rating after 13 to 14 days, scale 0 to 100 (0 no effect, 100 complete control)
# Outline: as §2
# horseweed = assay: Test C postemergence; type: in vivo, Erigeron canadensis; conditions: 10 days
# Outline: as §1
# wheat [20] = assay: Test C preemergence; type: in vivo, Triticum aestivum; conditions: for Plant response rating, Wheat: Preemergence; for Wheat plant response rating: preemergence
# Outline: as §1
# soybean [21] = assay: Test C preemergence; type: in vivo, Glycine max; conditions: for Plant response rating, Soybean: Preemergence; for Soybean plant response rating: preemergence
# Outline: as §1
# ryegrass, Italian [22] = assay: Test C preemergence; type: in vivo, Lolium multiflorum; conditions: for Plant response rating, Ryegrass, Italian: Preemergence; for Ryegrass, Italian plant response rating: preemergence
# Outline: as §1
# blackgrass [23] = assay: Test C preemergence; type: in vivo, Alopecurus myosuroides; conditions: for Plant response rating, Blackgrass: Preemergence; for Blackgrass plant response rating: preemergence
# Outline: as §1
# [24] = 500 g ai/ha, visual rating after 10 days, 0 to 100 scale (0 no effect, 100 complete control)
# [25] = Test C, 125 g ai/ha, 0 to 100 scale (0 no effect, 100 complete control)
# [26] = 125 g ai/ha, postemergence, 0 to 100 scale, 0 no effect, 100 complete control
# [27] = Postemergence, 500 g ai/ha, visual 0 to 100 scale (0 no effect, 100 complete control)
# [28] = 500 g ai/ha, 0 to 100 scale (0 no effect, 100 complete control)
# [29] = 125 g ai/ha, 0 to 100 scale, 0 no effect, 100 complete control
# [30] = 500 g ai/ha, postemergence, 0 to 100 scale (0 no effect, 100 complete control)
# [31] = Postemergence, 125 g ai/ha, 0 to 100 scale (0 no effect, 100 complete control)
smiles,measurement,setting,value
Cc1cc(-n2cnc(C(C)C)n2)cc(C(=O)N2C[C@H](C)Oc3c(Cl)cccc32)c1C [Compound 259],"Plant response rating, Oat, Wild","oat, wild [1]; [24]",90
same,"Oat, Wild plant response rating","oat, wild [1]; [25]",60
same,"Plant response rating, Pigweed, Palmer","pigweed, palmer [2]; [26]",90
same,"Plant response rating, Pigweed, Palmer","pigweed, palmer [2]; [27]",90
same,"Plant response rating, Blackgrass",blackgrass [3]; [26],70
same,"Plant response rating, Blackgrass",blackgrass [3]; [27],80
same,"Plant response rating, Foxtail, Green",green foxtail [4]; [24],100
same,"Foxtail, Green plant response rating",green foxtail [4]; [25],100
same,"Plant response rating, Barnyardgrass",barnyardgrass [5]; [26],20
same,"Plant response rating, Barnyardgrass",barnyardgrass [5]; [27],70
same,"Plant response rating, Galium",galium; [26],100
same,"Plant response rating, Galium",galium; [27],100
same,"Plant response rating, Ragweed",ragweed [6]; [26],20
same,"Plant response rating, Ragweed",ragweed [6]; [27],50
same,"Plant response rating, Soybean",soybean [7]; [26],100
same,"Plant response rating, Soybean",soybean [7]; [27],100
same,"Plant response rating, Ryegrass, Italian","ryegrass, Italian [8]; [26]",30
same,"Plant response rating, Ryegrass, Italian","ryegrass, Italian [8]; [27]",50
same,"Plant response rating, Oat, Wild","oat, wild [9]; [26]",30
same,"Plant response rating, Oat, Wild","oat, wild [9]; [27]",30
same,"Plant response rating, Corn",corn [10]; [24],30
same,Corn plant response rating,corn [10]; [25],30
same,"Plant response rating, Ragweed",ragweed [11]; [24],0
same,Ragweed plant response rating,ragweed [11]; [25],30
same,"Plant response rating, Barnyardgrass",barnyardgrass [12]; [24],90
same,Barnyardgrass plant response rating,barnyardgrass [12]; [25],30
same,"Plant response rating, Corn",corn [13]; [26],10
same,"Plant response rating, Corn",corn [13]; [27],30
same,"Plant response rating, Foxtail, Green",green foxtail [14]; [26],40
same,"Plant response rating, Foxtail, Green",green foxtail [14]; [27],90
same,"Plant response rating, Ducksalad (Flood)",ducksalad,0
same,"Plant response rating, Rice (Flood)",rice,0
same,"Plant response rating, Wheat",wheat [15]; [26],20
same,"Plant response rating, Wheat",wheat [15]; [27],20
same,"Plant response rating, Pigweed, Palmer","pigweed, palmer [16]; [24]",100
same,"Pigweed, Palmer plant response rating","pigweed, palmer [16]; [25]",100
same,"Plant response rating, Kochia",kochia [17]; [26],70
same,"Plant response rating, Kochia",kochia [17]; [27],80
same,"Plant response rating, Kochia",kochia [18]; [24],100
same,Kochia plant response rating,kochia [18]; [25],90
same,"Plant response rating, Barnyardgrass (Flood)",barnyardgrass [19],0
same,"Plant response rating, Sedge, Umbrella (Flood)","sedge, umbrella",0
same,"Plant response rating, Horseweed",horseweed; [26],0
same,"Plant response rating, Horseweed",horseweed; [27],0
same,"Plant response rating, Wheat",wheat [20]; [24],90
same,Wheat plant response rating,wheat [20]; [25],50
same,"Plant response rating, Soybean",soybean [21]; [24],100
same,Soybean plant response rating,soybean [21]; [25],20
same,"Plant response rating, Ryegrass, Italian","ryegrass, Italian [22]; [24]",100
same,"Ryegrass, Italian plant response rating","ryegrass, Italian [22]; [25]",90
same,"Plant response rating, Blackgrass",blackgrass [23]; [24],70
same,Blackgrass plant response rating,blackgrass [23]; [25],50
CCOC[C@H]1CN(C(=O)c2cc(-n3cnc(CC)n3)cc3c2OCCO3)c2cccc(Cl)c2O1 [Compound 387],"Oat, Wild plant response rating","oat, wild [1]; [28]",70
same,"Plant response rating, Oat, Wild","oat, wild [1]; [29]",40
same,"Plant response rating, Pigweed, Palmer","pigweed, palmer [2]; [30]",100
same,"Plant response rating, Pigweed, Palmer","pigweed, palmer [2]; [31]",90
same,"Plant response rating, Blackgrass",blackgrass [3]; [30],90
same,"Plant response rating, Blackgrass",blackgrass [3]; [31],60
same,"Foxtail, Green plant response rating",green foxtail [4]; [28],100
same,"Plant response rating, Foxtail, Green",green foxtail [4]; [29],50
same,"Plant response rating, Barnyardgrass",barnyardgrass [5]; [30],60
same,"Plant response rating, Barnyardgrass",barnyardgrass [5]; [31],20
same,"Plant response rating, Galium",galium; [30],100
same,"Plant response rating, Galium",galium; [31],100
same,"Plant response rating, Ragweed",ragweed [6]; [30],80
same,"Plant response rating, Ragweed",ragweed [6]; [31],70
same,"Plant response rating, Soybean",soybean [7]; [30],100
same,"Plant response rating, Soybean",soybean [7]; [31],100
same,"Plant response rating, Ryegrass, Italian","ryegrass, Italian [8]; [30]",80
same,"Plant response rating, Ryegrass, Italian","ryegrass, Italian [8]; [31]",40
same,"Plant response rating, Oat, Wild","oat, wild [9]; [30]",20
same,"Plant response rating, Oat, Wild","oat, wild [9]; [31]",0
same,Corn plant response rating,corn [10]; [28],30
same,"Plant response rating, Corn",corn [10]; [29],0
same,Ragweed plant response rating,ragweed [11]; [28],100
same,"Plant response rating, Ragweed",ragweed [11]; [29],80
same,Barnyardgrass plant response rating,barnyardgrass [12]; [28],100
same,"Plant response rating, Barnyardgrass",barnyardgrass [12]; [29],50
same,"Plant response rating, Corn",corn [13]; [30],70
same,"Plant response rating, Corn",corn [13]; [31],10
same,"Plant response rating, Foxtail, Green",green foxtail [14]; [30],80
same,"Plant response rating, Foxtail, Green",green foxtail [14]; [31],40
same,"Plant response rating, Ducksalad (Flood)",ducksalad,20
same,"Plant response rating, Rice (Flood)",rice,10
same,"Plant response rating, Wheat",wheat [15]; [30],30
same,"Plant response rating, Wheat",wheat [15]; [31],10
same,"Pigweed, Palmer plant response rating","pigweed, palmer [16]; [28]",100
same,"Plant response rating, Pigweed, Palmer","pigweed, palmer [16]; [29]",100
same,"Plant response rating, Kochia",kochia [17]; [30],100
same,"Plant response rating, Kochia",kochia [17]; [31],80
same,Kochia plant response rating,kochia [18]; [28],100
same,"Plant response rating, Kochia",kochia [18]; [29],20
same,"Plant response rating, Barnyardgrass (Flood)",barnyardgrass [19],25
same,"Plant response rating, Sedge, Umbrella (Flood)","sedge, umbrella",70
same,"Plant response rating, Horseweed",horseweed; [30],60
same,"Plant response rating, Horseweed",horseweed; [31],50
same,Wheat plant response rating,wheat [20]; [28],30
same,"Plant response rating, Wheat",wheat [20]; [29],10
same,Soybean plant response rating,soybean [21]; [28],100
same,"Plant response rating, Soybean",soybean [21]; [29],90
same,"Ryegrass, Italian plant response rating","ryegrass, Italian [22]; [28]",80
same,"Plant response rating, Ryegrass, Italian","ryegrass, Italian [22]; [29]",60
same,Blackgrass plant response rating,blackgrass [23]; [28],20
same,"Plant response rating, Blackgrass",blackgrass [23]; [29],0
